The subject of this data set is female CD1 mice. The data set is described as follows: Indomethacin-induced mortality in mice (model dose). Type of data set: in vivo. The following applies: indomethacin 7 mg/kg s.c. bid for two days following overnight fasting; 7-8 week old female CD1 mice; saline-treated control animals. Here is the method:
Indomethacin(1-[p-chlorobenzoyl]-5-methoxy-2-methylindole-3-acetic acic) (Sigma Chemical Co., St Louis MO, lot 74H1212), stock solution was prepared and aliquoted 1 hr before the first injection. The mice were weighed, and then fasted overnight, and given food one hour prior to the first indomethacin injection. Mice were not fasted for the second indomethacin injection. Indomethacin (14.5 mg) was weighed out using a Mettler AE166 scale and dissolved in 1 mL anhydrous ethyl alcohol. The solution was warmed at 37° C for 5 minutes and thoroughly vortexed every minute until fully dissolved. 998.1 uL of stock indomethacin solution was diluted in 41 ml 5% NaHCO3 pH 7.3. […] Indomethacin used in the second injection was stored at -20° C overnight and allowed to thaw at room temperature prior to injection. Mice were injected at the same time (10:00 AM) on both days approximately 1 hr after receiving h[Gly^2]-GLP-2. Animals not receiving indomethacin were administered vehicle alone (250 µl anhydrous ethyl alcohol in 10.5 mL NaHCO3 pH 7.3 - a final injection volume of 0.5 ml was given daily over 2 days). Animals were sacrificed in a CO2 chamber 14 days following the administration of either PBS or h[Gly^2]-GLP-2.
Pilot experiments were performed to determine an indomethacin dose that reproducibly produced ∼ 50% mortality in mice. […]

With `COc1ccc2c(c1)c(CC(=O)O)c(C)n2C(=O)c1ccc(Cl)cc1` [indomethacin, 1-[p-chlorobenzoyl]-5-methoxy-2-methylindole-3-acetic acic], the mortality turned out to be 50%.

The values are drawn from patent EP0981362B1, “USE OF GLP-2 AGONISTS ENHANCING F[…] THE UPPER GASTROINTESTINAL TRACT” (1149336 ONTARIO INC., priority 1997, dated 1998).
